Test results published in patent US8889411B2, “Modulation of stem and progenitor cell differentiation, assays, and uses thereof” (Anthrogenesis Corporation, priority 2002, dated 2014).

Key:
[1] = test system: Bone marrow and cord blood CD34+ progenitor cells; test: Differentiation of CD34+ progenitor cells into dendritic cells, cell surface phenotype by flow cytometry; type: cell-based, human; parameters: key to Cell Population CD15+ / Cell Population CD34+ CD38− / Cell Population CD34− CD38+ / Cell Population CD1a+ CD14− / Cell Population CD1a− CD14+: ↑: up arrow indicates an increase in the cell population; ↓: down arrow indicates a decrease; details: day 6; SCF, Flt-3L, GM-CSF and TNF-α; versus DMSO-treated control
Method: Bone marrow and cord blood CD34^+ progenitor cells were obtained from Clonetics and cultured in Iscove's MDM with BIT 95000 (StemCell Technologies) in the presence of SCF, Flt-3L, GM-CSF and TNF-α for 6 days, and then in the presence of GM-CSF and TNF-α for 6 additional days.
Analysis of cell surface phenotype: Cells were processed for double staining (30 min at 4° C.) at day 6 and day 12 using FITC and PE conjugated mAbs. Antibodies used were from BD Pharmingen: CD34 (PE), CD38 (FITC), CD33 (FITC), CD1a (FITC), CD86 (PE), CD14 (PE), CD83 (PE), CD54 (PE), CD11b (PE), CD11c (PE), HLA-DR (PE), CD15 (FITC), and CD133 (PE) from Miltenyi. Fluorescence analysis was performed on a FACScan flow cytometer after acquisition of 10,000 events (Coulter). Results presented are representative of four independent experiments.
The methodology described above, i.e., the examination of the effect of IMiDs such as ACTIMID™ on the differentiation on early progenitor cells, such as CD34^+ cells, can be applied to any compound of interest, the effect of which on differentiation is desired to be known. As an example of the extension of this assay method to other compounds, we compared the effect of retinoic acid (ATRA) and aspirin to that of ACTIMID™ on the differentiation of CD34^+ cells toward the DC lineage versus the control (DMSO-treated) cells. Retinoic acid was studied because of its known effect on cellular proliferation and differentiation, its therapeutic use in some cancer, and its known teratogenic effect. Conversely, we studied the effect of aspirin because it is a commonly-used anti-inflammatory drug with no immunomodulatory properties. The results at day 6 of CD34^+ progenitors cells cultured in the presence of SCF, Flt-3L, GM-CSF and TNF-α, with or without compound for a period of 6 days, are presented below in Table 2 (up arrow indicates an increase in the cell population; down arrow indicates a decrease).

[2] = test system: Murine Sca+Lin− hematopoietic progenitor cells; test: Generation of murine dendritic cells from bone marrow Sca+Lin− progenitors, cell surface phenotype; type: cell-based, mouse (C57BL/6)
Text: Mouse bone marrow from inbred C57BL/6 mice was obtained from Clonetics. Hematopoietic Sca+Lin− progenitors were enriched using SpinSep murine progenitor enrichment cocktail (StemCell Technologies) and cultured in Iscove's MDM with BIT 95000 (StemCell Technologies) in the presence of murine growth factors SCF, Flt3L, GM-CSF and M-CSF for 9 days, to promote expansion of Sca+ cells and a DC precursor phenotype and then in the presence of GM-CSF and TNF-α for 3 additional days to drive the cells to an immature DC phenotype. Enriched Sca+Lin− cells were cultured in the presence of DMSO (0.1%), ACTIMID™ at 10 μM or all-trans retinoic acid (ATRA) (ICN Biomedicals) at 10 μM from day 0. Compounds were added to cells at day 0 and day 9.
Analysis of Murine cell surface phenotype: Murine cells were processed for double staining (14 min at RT) at day 9 and day 12; using FITC and PE conjugated mAbs. Antibodies used were from BD Pharmingen: Sea (PE), CD11b (FITC), Gr-1 (FITC), CD86 (PE), CD14 (PE), CD80 (PE), I-A^b (PE), CD40 (PE) and CD32.1/16.1 (FITC) from Miltenyi. Fluorescence analysis was performed on a FACScan flow cytometer (Coulter) after acquisition of 10,000 events.

[3] = test system: Purified human cord blood CD34+ cells; test: Monocyte production: CD34/CD14 staining of cord blood CD34+ cells cultured 14 days with cytokines; type: cell-based; details: 14 days
Method: Purified human cord blood CD34+ cells (greater than 90% CD34+) were cultured in 20% FCS IMDM medium supplemented with cytokines (IL3, IL6, G-CSF, KL and Epo) at 4×10^4 cells/ml for 14 days at 37° C. in a humidified 5% CO2 incubator. The experimental groups consisted of a group in which (i) no DMSO or chemical compounds were added (“None”), (ii) DMSO only, (iii) Thalidomide dissolved in DMSO, (iv) ACTIMID™ dissolved in DMSO, and (v) REVIMID™ dissolved in DMSO. Aliquots of cells were harvested and stained with CD34-PE conjugated monoclonal antibody and CD14-FITC conjugated monoclonal antibody.

[4] = test system: Human Cord Blood CD34+ Cells; test: FACS analysis of proliferation and differentiation of cord blood CD34+ cells cultured with IL3, G-CSF and Kit-ligand; type: cell-based; details: for CD11b+ Cell Population / CD34+CD38+ Cell Population / CD34+CD38− Cell Population: 7 days
Method: CB CD34+ cells were initiated at 4×10^4 cells/ml in a 24-well plate in 20% FCS IMDM (fetal calf serum/Iscove's Modified Dulbecco's Medium) supplemented with cytokines (1 L3, GCSF and Kit-ligand) (R&D Systems, Inc.). Thalidomide (Thal), ACTIMID™ or REVIMID™ were included in the culture at three different concentrations: 5 μg/ml, 1 μg/ml and 0.3 μg/ml. The same volumes of DMSO were used as controls. A negative control without, any compound was also used (indicated by “none” in FIGS. 3-7). Cells were cultured at 37° C. and 5% CO2 in a humidified incubator for 7 days. Cells were then harvested from each well.
The total cell number from each well was determined by counting in a CELL-DYN® 1700 (Abbott Diagnostics) and the expression of CXCR4, CD45, CD34, CD38, CD 1 lb and Gly-A expression was analyzed by FACS (fluorescence-activated cell sorting) staining (FIGS. 3-7).
CB cells from two different donors (CB2276 and CB2417) were cultured, assayed and analyzed separately (Table 1).

CC(=O)Oc1ccccc1C(=O)O [Aspirin, acetylsalicylic acid, reference compound]
Cell Population CD1a+ CD14− [1]: No change | Cell Population CD1a− CD14+ [1]: No change | Cell Population CD15+ [1]: No change | Cell Population CD34+ CD38− [1]: No change | Cell Population CD34− CD38+ [1]: No change

CC1=C(/C=C/C(C)=C/C=C/C(C)=C/C(=O)O)C(C)(C)CCC1 [All-trans RA, all-trans retinoic acid, reference compound]
Cell Population CD1a+ CD14− [1]: ↓ | Cell Population CD1a− CD14+ [1]: ↓ | Cell Population CD15+ [1]: ↑ | Cell Population CD34+ CD38− [1]: ↓ | Cell Population CD34− CD38+ [1]: ↑ | CD80, I-A^b and Sca+ expression by day 9 ([2]; 10 μM from day 0, data not shown): marked downregulation | expression of CD40 and CD80 ([2]; 10 μM, not shown): marked downregulation

O=C1CCC(N2C(=O)c3ccccc3C2=O)C(=O)N1 (stereo not drawn) [Thalidomide, reference compound]
percentage of CD34+ cells of the total cells ([3]; IL3, IL6, G-CSF, KL and Epo, compound dissolved in DMSO): 0.24% | production of monocytes (CD14+ cells) ([3]; relative to DMSO-treated group): similar | expression of CXCR4 ([4]; FACS analysis of surface proteins): not | yield of cells ([4]; IL-3, KL and G-CSF, compared with the DMSO control): slightly higher number of cells | effect on the proliferation of CD34+ cells ([4]; IL-3, KL and G-CSF, compared with the negative control (none)): do not have a significant effect | CD11b+ Cell Population ([4]; donor CB2276, 0.3 μg/ml): 7.6% | CD34+CD38+ Cell Population ([4]; donor CB2276, 0.3 μg/ml): 15.1 | CD34+CD38− Cell Population ([4]; donor CB2276, 0.3 μg/ml): 3.2 | CD11b+ Cell Population ([4]; donor CB2276, 1 μg/ml): 6.2% | CD34+CD38+ Cell Population ([4]; donor CB2276, 1 μg/ml): 3.8 | CD34+CD38− Cell Population ([4]; donor CB2276, 1 μg/ml): 1.0 | CD11b+ Cell Population ([4]; donor CB2276, 5 μg/ml): 8.1% | CD34+CD38+ Cell Population ([4]; donor CB2276, 5 μg/ml): 6.5 | CD34+CD38− Cell Population ([4]; donor CB2276, 5 μg/ml): 3.5 | CD11b+ Cell Population ([4]; donor CB2417, 0.3 μg/ml): 7.8% | CD34+CD38+ Cell Population ([4]; donor CB2417, 0.3 μg/ml): 5.0 | CD34+CD38− Cell Population ([4]; donor CB2417, 0.3 μg/ml): 0.8 | CD11b+ Cell Population ([4]; donor CB2417, 1 μg/ml): 5.2% | CD34+CD38+ Cell Population ([4]; donor CB2417, 1 μg/ml): 3.8 | CD34+CD38− Cell Population ([4]; donor CB2417, 1 μg/ml): 1.0 | CD11b+ Cell Population ([4]; donor CB2417, 5 μg/ml): 6.5% | CD34+CD38+ Cell Population ([4]; donor CB2417, 5 μg/ml): 3.0 | CD34+CD38− Cell Population ([4]; donor CB2417, 5 μg/ml): 1.1 | CD38 status of the majority of CD34+ and CD34− cells ([4]; treated cell populations): mainly CD38+
